According to patent publication US4118506A, “Pharmaceutical compositions containing 1,3-dithiol-2-ylidene malonate derivatives” (Nihon Nohyaku Co., Ltd., priority 1976, dated 1978):

What was measured:
[1] = system: acute liver damage induced by carbon tetrachloride; experiment: protective effect on acute liver damage associated with centrilobular necrosis, carbon tetrachloride model; format: in vivo, mouse (dd strain); details: 250 mg/kg oral 6 h before CCl4, 24 h after CCl4; for Liver Damage Index: 0 normal, 2 slightly recognized, 4 clearly observable, 6 heavy damage, average of 5 to 6 mice; for p-GPT: values over 1,000 taken as 1,000
From the text: Carbon tetrachloride (CCl4) administration induces centrilobular necrosis of the liver associated with loss of diphosphopyridine nucleotide, hepatic glycogen, coenzyme A and increase in neutral fat. Release of several enzymes from the hepatocytes, and increase of enzyme activities in the plasma are recognized as the result of the damage of the liver. A suitable means for evaluating the degree of damage induced by CCl4 or the degree of protection afforded by drugs is to study the plasma glutamic-pyruvic transaminase (p-GPT) activity.
Methods: The test compounds were dissolved or suspended in olive oil and administered orally at the dose of 250 mg/kg to the mice (Four-week-old male mice-dd strain). After 6 hours, CCl4 was administered orally (0.05 ml/kg as olive oil solution). Animals were killed 24 hours after CCl4 administration, and the liver was grossly observed. The plasma was obtained by centrifugation. Activities of p-GPT were determined by the method of Reitman and Frankel and expressed in Karmen units.
Score for liver damage index was as follows:
Each figure indicates average of 5 to 6 mice. Values of p-GPT over 1,000 Karmen unit regarded as 1,000 for calculation of average for convenience.

[2] = system: alcohol metabolic function of liver; experiment: effect on concentration of ethyl alcohol in the blood; format: in vivo, mouse; details: 250 mg/kg oral 6 h before ethanol 1,000 mg/kg
Experimental: The test compounds are dissolved or suspended in olive oil and administered orally at the dose of 250 mg/kg to the mice. After 6 hours, 1,000 mg/kg of ethyl alcohol was given orally. Blood was taken in a capillary from caudal vein at the time indicated in the results. The plasma was obtained by centrifugation. The concentration of ethyl alcohol in the plasma was measured by FID type gas liquid chromatography. Five mice were used for each group.

[3] = system: fatty liver induced by ethionine; experiment: effect on fatty liver, ethionine model; format: in vivo, mouse (dd-strain); details: 250 mg/kg oral, simultaneously with (0 hr) ethionine 200 mg/kg i.p.
From the text: There are known many factors inducing fatty liver. But, the fatty liver is grouped into a couple of patterns from the mechanism of lipid accumulation or metabolism of lipoprotein in the liver. Ethionine is a typical example which induces first pattern of fatty liver. It inhibits RNA and protein synthesis and destroys polysome of the liver cell. Fatty liver is induced by inhibition of the protein synthesis and disturbance of lipoprotein secretion.
Usually, fatty liver is closely related to the accumulation of triglyceride in the liver. In the present example, the degree of fatty liver and protective or therapeutic effect on the fatty liver was evaluated by measurement of triglyceride content in the liver.
The compounds of this invention and methionine were independently dissolved or suspended into olive oil and administered orally to the male mouse (4 week-old dd-strain) at the dose of 250 mg/kg. One hour before it, simultaneously with it or one hour after it, ethionine dissolved in equimolar NaOH solution was administered intraperitoneally at the dose of 200 mg/kg. Twenty four hours after the administration of ethionine, the animals were sacrificed and triglyceride content in the liver was determined by chromotropic acid method.

[4] = system: fatty liver induced by carbon tetrachloride; experiment: therapeutic effect on fatty liver, carbon tetrachloride model; format: in vivo, rat (SD strain)
Experimental: Carbon tetrachloride also induces fatty liver, but the picture of disease differs from the case of ethionine-induced fatty liver. Carbon tetrachloride is generally considered to damage microsome and thereby to inhibit protein synthesis and induce fatty liver.
Carbon tetrachloride was subcutaneously administered to 36 week-old male rats (SD strain) for 4 days at the dose of 1 ml/kg. The treated animals were left for 3 days after the last administration to maximize the manifestation of fatty liver.
Administration of Compound 4 was commenced on the fourth day after the administration of carbon tetrachloride was completed. It was orally given everyday for 10 days at the dose of 50 or 250 mg/kg. On the 11th day, the animals were sacrificed by exsanguination. The therapeutic effect was evaluated by determining the content of lipid in the liver (triglyceride and total lipid) and examining the histopathological changes. Triglyceride and total lipid were determined colorimetrically by chromotropic acid method and Bragdon's oxidation method, respectively.
Indices for the histopathological change is as follows: […]

[5] = system: acute liver damage induced by chloroform; experiment: protective effect on acute liver damage associated with centrilobular necrosis, chloroform model; format: in vivo, mouse (dd); details: chloroform 0.2 ml/kg oral; 100 mg/kg oral 6 h before; 24 h after
Experimental: (§1) Bromobenzene (hereinafter abbreviated as BB), Dimethylnitrosamine (hereinafter abbreviated as DMN) and chloroform (hereinafter abbreviated as CF) resemble carbon tetrachloride in inducing liver damage associated with centrilobular necrosis.
(§2) Test compound or anethol trithion was orally administered to animal at the dose of 100 mg/kg. Twenty four hours after it (in the case of dimethylnitrosamine, exceptionally fifteen hours after it) the animals were sacrificed and blood samples were collected. Indices of hepatotoxicity adoptable in each chemical were measured, from which the efficacy of the compound was evaluated.
CF male mouse 0.2 oral p-GPT activity

[6] = system: acute liver damage induced by dimethylnitrosamine; experiment: protective effect on acute liver damage associated with centrilobular necrosis, dimethylnitrosamine model; format: in vivo, mouse (dd); details: dimethylnitrosamine 0.05 ml/kg i.p.; 100 mg/kg oral 6 h before; 15 h after
Experimental: as §1, §2
DMN male mouse 0.05 intraper-

[7] = system: bile flow and excretion of biliary salt; experiment: cholagogic action: bile flow and biliary salt excretion; format: in vivo, rat (SD-JCL strain); set-up: key to excretion of biliary salt: relative to 1 h pre-drug amount taken as 100
Experimental: The male rat (4 week-old, SD-JCL strain) was anesthetized with sodium pentobarbital (37.5 mg/kg, intraperitoneal injection). The abdominal cavity was opened through a midline incision. The common bile duct was catheterized with polyethylene tube o.d. 0.8 mm. The catheter was brought to the outside through the abdominal incision wound prior to closing. Bile was collected from the catheter continuously with time intervals of one hour. The quantity of bile produced in one hour was determined by weighing and that of biliary salt was determined by enzymatic method (Ikagaku Jikkenho Koza 1B, Biological Constituents II, edited by Tamino […]). The amount of biliary salts was represented as chloic acid equivalent. In the representation of the results, the quantities of bile and biliary salts produced in one hour prior to the administration of drug were taken as 100. […] As reference, anethol trithion was used.

[8] = system: acute liver damage induced by bromobenzene; experiment: protective effect on acute liver damage associated with centrilobular necrosis, bromobenzene model; format: in vivo, rat (SD); details: bromobenzene 0.75 ml/kg oral; 100 mg/kg oral 6 h before; 24 h after
Experimental: as §1, §2
BB male rat 0.75 oral p-GPT activity

[9] = system: acute liver damage induced by D-galactosamine; experiment: protective effect on acute hepatitis with mesenchymal reaction and discrete lobular necrosis, D-galactosamine model; format: in vivo, rat (SD strain); details: 250 mg/kg oral 6 h before D-galactosamine i.p.
Experimental: D-Galactosamine is a compound which induces a discrete lobular necrosis associated with mesenchymal reaction similar to the change observed in human viral hepatitis, so that it is frequently used in producing a model for viral hepatitis.
The compound of this invention or anethol trithion was administered orally to the male rat (SD strain) at the dose of 250 mg/kg. Six hours after it, D-galactosamine was intraperitoneally administered at the dose of 600 mg/kg. Four hours after it, an additional 300 mg/kg was administered intraperitoneally. Eight hours after it, the animals were sacrificed to collect the blood samples. P-GPT activity and triglyceride in the liver were measured to evaluate the effect of the compound of this invention.

[10] = system: acute liver damage induced by allyl alcohol; experiment: protective effect on acute liver damage associated with periportal necrosis, allyl alcohol model; format: in vivo, mouse (dd strain); details: 250 mg/kg oral 6 h before allyl alcohol 0.075 ml/kg oral; 24 h after
Experimental: The compound of this invention or anethol trithion was orally administered to the male mouse (4 week/old, dd strain) at the dose of 250 mg/kg. Six hours after it, allyl alcohol was orally administered at the dose of 0.075 ml/kg. Twenty four hours after it, the animals were sacrificed to collect blood samples.

[11] = system: glucose metabolic function of liver; experiment: effect on glucose metabolism (blood sugar); format: in vivo, mouse; details: for Blood Sugar: 250 mg/kg oral 6 h before glucose 4.0 g/kg
Experimental: Methods: The test compounds dissolved in olive oil and administered orally at the dose of 250 mg/kg to the mice. After 6 hours, 4.0 g/kg of glucose was orally administered. The same amount of glucose was given to the control animals. 0.02 ml of blood was taken from caudal vein of the mice at 30, 60, 90 and 120 min. after glucose administration. Blood sugar was measured by the procedure of Somogyi-Nelson. Number of animals used was 5 to 6 mice for each treatment.

COC(=O)C(C(=O)OC)=C1SC=CS1 [Compound 1]
Liver Damage Index [1]: 0.4 | p-GPT [1]: 138 Karmen units

CCOC(=O)C(C(=O)OC(C)C)=C1SC=CS1 [Compound 7, Ethyl isopropyl 1,3-dithiol-2-ylidene malonate]
Concentration of Ethyl alcohol in Plasma ([2]; 0 min): 30 ± 14 ppm | Concentration of Ethyl alcohol in Plasma ([2]; 5 min): 830 ± 180 ppm | Concentration of Ethyl alcohol in Plasma ([2]; 15 min): 799 ± 154 ppm | Concentration of Ethyl alcohol in Plasma ([2]; 30 min): 448 ± 208 ppm | Concentration of Ethyl alcohol in Plasma ([2]; 60 min): 158 ± 113 ppm | Concentration of Ethyl alcohol in Plasma ([2]; 120 min): 12 ± 2 ppm | Liver Damage Index [1]: 0.8 | p-GPT [1]: 102 Karmen units

CCCOC(=O)C(C(=O)OCCC)=C1SC=CS1 [Compound 3, Di-n-propyl 1,3-dithiol-2-ylidene malonate]
Liver Damage Index [1]: 0.1 | p-GPT [1]: 36 Karmen units

CSCC[C@H](N)C(=O)O [Methionine, reference compound]
Triglyceride [3]: 10.3 ± 0.83 mg/g-liver | Total lipid ([4]; 250 mg/kg, 10 days): 146.1 ± 13.0 mg/g-liver | Triglyceride ([4]; 250 mg/kg, 10 days): 47.3 ± 7.3 mg/g-liver | therapeutic effect against fatty liver ([4]; carbon tetrachloride): hardly exhibited a therapeutic effect

COC(=O)C(C(=O)OCC(C)C)=C1SC=CS1 [Compound 8, Methyl isobutyl 1,3-dithiol-2-ylidene malonate]
Liver Damage Index [1]: 0.6 | p-GPT [1]: 88 Karmen units

CC(C)COC(=O)C(C(=O)OCC(C)C)=C1SC=CS1 [Compound 6]
Liver Damage Index [1]: 0.4 | p-GPT [1]: 75 Karmen units

COc1ccc(-c2cc(=S)ss2)cc1 [Anethol trithion, reference compound]
p-GPT [5]: > 1000 Karmen unit | BSP [6]: 17.6 ± 2.7 mg/dL | p-GPT [6]: 192 ± 54 Karmen unit | excretion of biliary salt ([7]; 200 mg/kg oral, 5 hours after treatment, before treatment = 100): 33 ± 4.0 | excretion of biliary salt ([7]; before treatment, 1 hour, taken as 100 (normalisation)): 100 | BSP [8]: 12.9 ± 5.5 mg/dL | p-GPT [8]: 28 ± 4.1 Karmen unit | p-GPT [1]: 38 Karmen units | Triglyceride in the liver [9]: 9.2 ± 1.5 mg/g | BSP [10]: 19.3 ± 4.6

CCCCOC(=O)C(C(=O)OCCCC)=C1SC=CS1 [Compound 5]
Liver Damage Index [1]: 0.4 | p-GPT [1]: 52 Karmen units

CCOC(=O)C(C(=O)OCC)=C1SC=CS1 [Compound 2, Diethyl 1,3-dithiol-2-ylidene malonate]
Blood Sugar, percent of 0 min value ([11]; 0 min): 100% | Blood Sugar ([11]; 0 min): 136 ± 20.4 mg/dL | Blood Sugar ([11]; 30 min): 295 ± 22.3 mg/dL | Blood Sugar ([11]; 60 min): 251 ± 19.6 mg/dL | Blood Sugar ([11]; 90 min): 202 ± 12.3 mg/dL | Blood Sugar ([11]; 120 min): 158 ± 15.5 mg/dL | Blood Sugar, percent of 0 min value ([11]; 30 min): 217% | Blood Sugar, percent of 0 min value ([11]; 60 min): 185% | Blood Sugar, percent of 0 min value ([11]; 90 min): 149% | Blood Sugar, percent of 0 min value ([11]; 120 min): 116% | Liver Damage Index [1]: 0.2 | p-GPT [1]: 36 Karmen units
